{"source": "patent US20090148382A1", "about": "“Technetium- and rhenium-bis(heteroaryl) complexes, and methods of use thereof” (Molecular Insight Pharmaceuticals, Inc., priority 2004, published 2009)", "key": {"[1]": {"assay": "Stability to transchelation (cysteine / histidine challenge)", "type": "physicochemical", "settings": "99mTc-labeled HPLC purified product", "method": "The stability of the complex to transchelation was investigated by incubating two separate samples of 4b with 1000 fold excess of cysteine and histidine in PBS buffer heated to 37° C."}, "[2]": {"assay": "Biodistribution / blood clearance of 99mTc complex", "type": "in vivo", "excerpt": "We have also explored extensively the use as ligands for metal tricarbonyls, e.g., Re and Tc tricarbonyls, of protected and unprotected versions of [ε-{N,N-di(pyridyl-2-methyl)}α-(fmoc)lysine] (Fmoc-DpK). The choice of the tridentate DpK for the exploration of a single amino acid chelate was based on the excellent RCP and RCY, and the potential to prepare radiopharmaceutical kits. The pyridine-2-methylamine was easily derivatized into the amino acid.\nThis approach enables the creation of libraries containing the {M(CO)3}^1+ core. We have begun to define the biological fate of the ^99mTc-bis(heteroaryl) complexes, allowing us to compare a series of future tridentate analogs. The dipyridine labeling proceeded in high yield and was stable to excess histidine and cysteine challenges for more than 18 hours. […] Activity decreased in all tissues as a function of time, except in the GI tract, which increased with time."}, "[3]": {"biological_target": "T1, formyl peptide receptor (Homo sapiens, UniProt P21462)", "T1 sequence (P21462 1-350)": "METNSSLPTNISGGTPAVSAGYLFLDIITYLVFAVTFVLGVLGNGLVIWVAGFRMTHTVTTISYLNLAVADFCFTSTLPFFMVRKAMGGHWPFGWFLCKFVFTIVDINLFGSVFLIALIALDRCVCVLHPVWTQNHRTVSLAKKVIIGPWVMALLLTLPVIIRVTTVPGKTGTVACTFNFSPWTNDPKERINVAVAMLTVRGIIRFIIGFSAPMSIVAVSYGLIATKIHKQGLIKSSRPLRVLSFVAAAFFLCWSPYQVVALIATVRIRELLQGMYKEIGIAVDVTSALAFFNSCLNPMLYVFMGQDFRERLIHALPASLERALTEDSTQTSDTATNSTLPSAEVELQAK", "assay": "Affinity for the formyl peptide receptor by flow cytometry", "type": "binding", "settings": "fluorescein labeled fNLFNTK as the reference ligand", "protocol": "The affinity of 5 and 6 for the formyl peptide receptor was determined by flow cytometry using fluorescein labeled fNLFNTK as the reference ligand."}}, "data": [{"compound": "O=C(NC(CCCCN(Cc1ccccn1)Cc1ccccn1)C(=O)O)OCC1c2ccccc2-c2ccccc21", "note": "(stereo not drawn) [Fmoc-DpK, [ε-{N,N-di(pyridyl-2-methyl)}α-(fmoc)lysine]]", "values": [{"measurement": "degradation in challenge experiments", "setting": "[1]; 100 mM Cysteine or Histidine in PBS pH 7.2 at 37° C. for 18 hrs", "result": "no degradation"}]}, {"compound": "O=C1c2ccccc2C(=O)N1CCCCN(Cc1ccccn1)Cc1ccccn1", "note": "[[{N,N-di(pyridyl-2-methyl)}N-butyl-phthlalimide]]", "values": [{"measurement": "degradation in challenge experiments", "setting": "[1]; 10 mM Cysteine or Histidine in PBS pH 7.2 at 37° C. for 20 hrs", "result": "no degradation"}]}, {"compound": "[^99mTc(CO)3(DpK)]", "values": [{"measurement": "blood clearance % ID/g", "setting": "[2]; 5 minutes", "result": 0.6, "unit": "% ID/g"}, {"measurement": "blood clearance % ID/g", "setting": "[2]; 30 minutes", "result": 0.07, "unit": "% ID/g"}]}, {"compound": "fMLF[(SAACQ-Re(CO)3)^+]G [Compound 6]", "values": [{"measurement": "Kd", "setting": "[3]", "result": "0.027 ± 0.013", "unit": "µM"}]}]}
